# Test results taken from US10858356B2, “Pyrazolopyridine derivative having GLP-1 receptor agonist effect” (Chugai Seiyaku Kabushiki Kaisha, priority 2016, dated 2020).
# Target: human GLP1R (Homo sapiens (Human), UniProt P43220)
# Experiment: In vitro cAMP signal activation in human GLP1R stably-expressing cell line (hGLP1R-HEK293)
# Format: cell-based
# Conditions: cAMP concentration in hGLP1R-HEK293; 100% = 1 nM human GLP-1 (7-37)
# Experimental: <Test Example 1> Measurement of In Vitro cAMP Signal Activation of a Compound in Human GLP1R
# A human GLP1R stably-expressing cell line (hGLP1R-HEK293) was used in the experiment. The cells were cultured in a Dulbecco's modified Eagle's medium (DMEM) containing 10% fetal bovine serum (Sigma-Aldrich), 100 units/mL penicillin G and 100 μg/mL streptomycin sulfate (Gibco), and 500 μg/mL Geneticin (Gibco), under a moist atmosphere containing 5% CO2, at 37° C.
# hGLP1R-HEK293 was seeded in 96 well plates at 2.0×10^4 cells per well and cultured over night. The medium for culturing the cells was changed to 50 μL of Medium A (DMEM, 20 mM HEPES, 0.05% BSA, 0.5 mM 3-isobutyl-1-methylxanthine) the next day, and the cells were incubated at 37° C. for 30 min. Then, 50 μL of Medium B (DMEM, 20 mM HEPES, 0.05% BSA, 0.5 mM 3-isobutyl-1-methylxanthine) containing GLP-1 or the compound was added, and the cells were incubated at 37° C. for an additional 30 min. Then, 100 μL of Assay lysis buffer (Applied Bioscience) was added, and the cells were incubated at 37° C. for 30 min. The cAMP concentration was quantified using cAMP HiRange kit (Cisbio Bioassays).
# By setting the cAMP concentration when the human GLP-1 (7-37) was put into action at a concentration of 1 nM to 100%, the cAMP concentration of each well was converted to a reaction rate (%).
# human GLP1R, sequence (P43220 24-463): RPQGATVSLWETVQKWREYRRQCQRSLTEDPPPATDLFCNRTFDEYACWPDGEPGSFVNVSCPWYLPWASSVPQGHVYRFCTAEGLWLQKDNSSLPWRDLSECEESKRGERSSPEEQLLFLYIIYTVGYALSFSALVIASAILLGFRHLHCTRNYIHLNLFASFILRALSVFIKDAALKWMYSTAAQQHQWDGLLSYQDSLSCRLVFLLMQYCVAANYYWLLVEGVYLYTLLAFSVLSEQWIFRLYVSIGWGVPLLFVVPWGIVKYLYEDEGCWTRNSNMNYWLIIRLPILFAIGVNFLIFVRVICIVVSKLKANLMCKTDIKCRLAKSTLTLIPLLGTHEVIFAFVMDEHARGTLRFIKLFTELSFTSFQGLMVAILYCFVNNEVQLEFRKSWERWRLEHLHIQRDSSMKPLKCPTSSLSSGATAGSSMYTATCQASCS
row,SMILES,EC50
1,"COCCN(C(C)=O)C12C3C4C1C1C2C3C41n1ccn(-c2c3c(nn2-c2cc(C)c(F)c(C)c2)CCN(C(=O)c2cc4cc(C5CCOCC5)ccc4n2[C@@]2(c4noc(=O)[nH]4)C[C@@H]2C)[C@H]3C)c1=O (stereo partly drawn) [compound 57, N-[4-[3-[(4S)-2-(4-fluoro-3,5-dimethylphenyl)-4-methyl-5-[1-[(1S,2S)-2-methyl-1-(5-oxo-4H-1,2,4-oxadiazol-3-yl)cyclopropyl]-5-(oxan-4-yl)indole-2-carbonyl]-6,7-dihydro-4H-pyrazolo[4,3-c]pyridin-3-yl]-2-oxoimidazol-1-yl]cuban-1-yl]-N-(2-methoxyethyl)acetamide]",8.1 nM
2,CC[C@H]1C[C@@H](c2ccc3c(c2)cc(C(=O)N2CCc4nn(-c5cc(C)c(F)c(C)c5)c(-n5ccn(-c6ccc7c(cnn7C)c6)c5=O)c4C2)n3[C@@]2(c3noc(=O)[nH]3)C[C@@H]2C)CCO1 [compound 77],1.4 nM
3,Cc1cc(-n2nc3c(c2-n2ccn(-c4ccc5c(cnn5[C@@H]5CCOC5)c4)c2=O)[C@H](C)N(C(=O)c2cc4cc(C5CCOCC5)cc(F)c4n2[C@@]2(c4noc(=O)[nH]4)C[C@@H]2C)CC3)cc(C)c1F [compound 64],2 nM
4,"Cc1cc(-n2nc3c(c2-n2ccn(-c4ccc5c(cnn5[C@H]5CCOC5)c4)c2=O)[C@H](C)N(C(=O)c2cc4cc(C5CCOCC5)ccc4n2[C@@]2(c4noc(=O)[nH]4)C[C@@H]2C)CC3)cc(C)c1F [Example 22, 3-[(1S,2S)-1-[2-[(4S)-2-(4-fluoro-3,5-dimethylphenyl)-4-methyl-3-[2-oxo-3-[1-[(3S)-oxolan-3-yl]indazol-5-yl]imidazol-1-yl]-6,7-dihydro-4H-pyrazolo[4,3-c]pyridine-5-carbonyl]-5-(oxan-4-yl)indol-1-yl]-2-methylcyclopropyl]-4H-1,2,4-oxadiazol-5-one]",2.3 nM
5,"COCCCN(C(C)=O)c1ccc(-n2ccn(-c3c4c(nn3-c3cc(C)c(F)c(C)c3)CCN(C(=O)c3cc5cc(C6CCOCC6)ccc5n3[C@@]3(c5noc(=O)[nH]5)C[C@@H]3C)C4)c2=O)cc1OC [Example 9, N-[4-[3-[2-(4-fluoro-3,5-dimethylphenyl)-5-[1-[(1S,2S)-2-methyl-1-(5-oxo-4H-1,2,4-oxadiazol-3-yl)cyclopropyl]-5-(oxan-4-yl)indole-2-carbonyl]-6,7-dihydro-4H-pyrazolo[4,3-c]pyridin-3-yl]-2-oxoimidazol-1-yl]-2-methoxyphenyl]-N-(3-methoxypropyl)acetamide]",1.8 nM
6,"Cc1cc(-n2nc3c(c2-n2ccn(-c4ccc5c(cnn5C)c4)c2=O)CN(C(=O)c2cc4cc(C5CCOCC5)ccc4n2[C@@]2(c4noc(=O)[nH]4)C[C@@H]2C)CC3)cc(C)c1F [compound 54, 3-[(1S,2S)-1-[2-[2-(4-fluoro-3,5-dimethylphenyl)-3-[3-(1-methylindazol-5-yl)-2-oxoimidazol-1-yl]-6,7-dihydro-4H-pyrazolo[4,3-c]pyridine-5-carbonyl]-5-(oxan-4-yl)indol-1-yl]-2-methylcyclopropyl]-4H-1,2,4-oxadiazol-5-one]",3.9 nM
7,"Cc1cc(-n2nc3c(c2-n2ccn(-c4ccc5c(cnn5C)c4)c2=O)CN(C(=O)c2cc4cc(C5CCOCC5)ccc4n2[C@@]2(c4noc(=O)[nH]4)C[C@@H]2CO)CC3)cc(C)c1F [compound 79, 3-[(1S,2S)-1-[2-[2-(4-fluoro-3,5-dimethylphenyl)-3-[3-(1-methylindazol-5-yl)-2-oxoimidazol-1-yl]-6,7-dihydro-4H-pyrazolo[4,3-c]pyridine-5-carbonyl]-5-(oxan-4-yl)indol-1-yl]-2-(hydroxymethyl)cyclopropyl]-4H-1,2,4-oxadiazol-5-one]",2.4 nM
8,"Cc1cc(-n2nc3c(c2-n2ccn(-c4ccc5c(cnn5CCF)c4)c2=O)[C@H](C)N(C(=O)c2cc4cc(C5CCOCC5)ccc4n2[C@@]2(c4noc(=O)[nH]4)C[C@@H]2C)CC3)cc(C)c1F [Example 26, 3-[(1S,2S)-1-[2-[(4S)-2-(4-fluoro-3,5-dimethylphenyl)-3-[3-[1-(2-fluoroethyl)indazol-5-yl]-2-oxoimidazol-1-yl]-4-methyl-6,7-dihydro-4H-pyrazolo[4,3-c]pyridine-5-carbonyl]-5-(oxan-4-yl)indol-1-yl]-2-methylcyclopropyl]-4H-1,2,4-oxadiazol-5-one]",0.77 nM
9,"Cc1cc(-n2ccn(-c3c4c(nn3-c3cc(C)c(F)c(C)c3)CCN(C(=O)c3cc5cc(C6CCOCC6)ccc5n3[C@@]3(c5noc(=O)[nH]5)C[C@@H]3C)[C@H]4C)c2=O)ccc1OCCO [Example 19, 3-[(1S,2S)-1-[2-[(4S)-2-(4-fluoro-3,5-dimethylphenyl)-3-[3-[4-(2-hydroxyethoxy)-3-methylphenyl]-2-oxoimidazol-1-yl]-4-methyl-6,7-dihydro-4H-pyrazolo[4,3-c]pyridine-5-carbonyl]-5-(oxan-4-yl)indol-1-yl]-2-methylcyclopropyl]-4H-1,2,4-oxadiazol-5-one]",1.3 nM
10,"COc1nccc(-c2ccc3c(c2)cc(C(=O)N2CCc4nn(-c5cc(C)c(F)c(C)c5)c(-n5ccn(-c6ccc7c(cnn7CC(C)(C)O)c6)c5=O)c4[C@@H]2C)n3[C@@]2(c3noc(=O)[nH]3)C[C@@H]2C)c1C [Example 13, 3-[(1S,2S)-1-[2-[(4S)-2-(4-fluoro-3,5-dimethylphenyl)-3-[3-[1-(2-hydroxy-2-methylpropyl)indazol-5-yl]-2-oxoimidazol-1-yl]-4-methyl-6,7-dihydro-4H-pyrazolo[4,3-c]pyridine-5-carbonyl]-5-(2-methoxy-3-methylpyridin-4-yl)indol-1-yl]-2-methylcyclopropyl]-4H-1,2,4-oxadiazol-5-one]",3.7 nM
11,"Cc1cc(-n2nc3c(c2-n2ccn(-c4ccc5c(cnn5CC(F)(F)F)c4F)c2=O)[C@H](C)N(C(=O)c2cc4cc([C@H]5CCOC(C)(C)C5)ccc4n2[C@@]2(c4noc(=O)[nH]4)C[C@@H]2C)CC3)cc(C)c1Cl [Example 42, 3-[(1S,2S)-1-[2-[(4S)-2-(4-chloro-3,5-dimethylphenyl)-3-[3-[4-fluoro-1-(2,2,2-trifluoroethyl)indazol-5-yl]-2-oxoimidazol-1-yl]-4-methyl-6,7-dihydro-4H-pyrazolo[4,3-c]pyridine-5-carbonyl]-5-[(4S)-2,2-dimethyloxan-4-yl]indol-1-yl]-2-methylcyclopropyl]-4H-1,2,4-oxadiazol-5-one]",1.9 nM
12,"Cc1cc(-n2nc3c(c2-n2ccn(-c4ccc5c(cnn5C)c4)c2=O)[C@H](C)N(C(=O)c2cc4cc([C@H]5CCOC(C)(C)C5)ccc4n2[C@@]2(c4noc(=O)[nH]4)C[C@@H]2C)CC3)ccc1F [Example 50, 3-[(1S,2S)-1-[5-[(4S)-2,2-dimethyloxan-4-yl]-2-[(4S)-2-(4-fluoro-3-methylphenyl)-4-methyl-3-[3-(1-methylindazol-5-yl)-2-oxoimidazol-1-yl]-6,7-dihydro-4H-pyrazolo[4,3-c]pyridine-5-carbonyl]indol-1-yl]-2-methylcyclopropyl]-4H-1,2,4-oxadiazol-5-one]",2.9 nM
13,"CCS(=O)(=O)c1ccc(-n2ccn(-c3c4c(nn3-c3cc(C)c(F)c(C)c3)CCN(C(=O)c3cc5cc(C6CCOCC6)ccc5n3[C@@]3(c5noc(=O)[nH]5)CC3C)[C@H]4C)c2=O)cc1 (stereo in doubt) [Example 21, 3-[(1S,2S)-1-[2-[(4S)-3-[3-(4-ethylsulfonylphenyl)-2-oxoimidazol-1-yl]-2-(4-fluoro-3,5-dimethylphenyl)-4-methyl-6,7-dihydro-4H-pyrazolo[4,3-c]pyridine-5-carbonyl]-5-(oxan-4-yl)indol-1-yl]-2-methylcyclopropyl]-4H-1,2,4-oxadiazol-5-one]",1.6 nM
14,"Cc1cc(-n2nc3c(c2-n2ccn(-c4ccc5c(cnn5C)c4F)c2=O)[C@H](C)N(C(=O)c2cc4cc([C@H]5CCOC(C)(C)C5)ccc4n2[C@@]2(c4noc(=O)[nH]4)C[C@@H]2C)CC3)cc(C)c1Cl [compound 65, 3-[(1S,2S)-1-[2-[(4S)-2-(4-chloro-3,5-dimethylphenyl)-3-[3-(4-fluoro-1-methylindazol-5-yl)-2-oxoimidazol-1-yl]-4-methyl-6,7-dihydro-4H-pyrazolo[4,3-c]pyridine-5-carbonyl]-5-[(4S)-2,2-dimethyloxan-4-yl]indol-1-yl]-2-methylcyclopropyl]-4H-1,2,4-oxadiazol-5-one]",3.5 nM
15,"Cc1cc(-n2nc3c(c2-n2ccn(-c4ccc5c(cnn5C)c4)c2=O)[C@H](C)N(C(=O)c2cc4cc(-c5ccnc(N(C)C)c5C)ccc4n2[C@@]2(c4noc(=O)[nH]4)C[C@@H]2C)CC3)cc(C)c1F [Example 15, 3-[(1S,2S)-1-[5-[2-(dimethylamino)-3-methylpyridin-4-yl]-2-[(4S)-2-(4-fluoro-3,5-dimethylphenyl)-4-methyl-3-[3-(1-methylindazol-5-yl)-2-oxoimidazol-1-yl]-6,7-dihydro-4H-pyrazolo[4,3-c]pyridine-5-carbonyl]indol-1-yl]-2-methylcyclopropyl]-4H-1,2,4-oxadiazol-5-one]",2.2 nM
